# Results published in PubChem BioAssay (NCI).
#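 Assay format: 96-well plates, 48-hour exposure. GI50: concentration for 50% inhibition of growth. TGI is the concentration that stops growth completely.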
# Experiments:
# Assay in all cases: NCI anticancer screen, dose series, 48 h
# [1] = test system: EKVX NSCLC
# [2] = test system: A549 NSCLC
# [3] = test system: SNB-75 CNS
# [4] = test system: SK-MEL-2 melanoma
# [5] = test system: ACHN renal
# [6] = test system: HCT-15 colon
# [7] = test system: NCI-H226 lung
# [8] = test system: HS 578T breast
# [9] = test system: TK-10 renal
# [10] = test system: SK-MEL-28 melanoma
# [11] = test system: NCI/ADR-RES ovarian
# [12] = test system: T-47D breast
Structure (SMILES),TGI [1] [µM],TGI [2] [µM],TGI [3] [µM],TGI [4] [µM],TGI [5] [µM],TGI [6] [µM],TGI [7] [µM],TGI [8] [µM],TGI [9] [µM],TGI [10] [µM],TGI [11] [µM],TGI [12] [µM],GI50 [1] [µM],GI50 [2] [µM],GI50 [9] [µM],GI50 [3] [µM],GI50 [4] [µM],GI50 [10] [µM],GI50 [6] [µM],GI50 [7] [µM]
N#CN=C(N(Cc1ccccc1)Cc1ccccc1)N(Cc1ccccc1)Cc1ccccc1,> 100,> 100,> 100,> 100,> 100,> 100,> 100,,,,,,,,,,,,,
O=C(O)c1cccc2c1/C(=N/Nc1ccccc1)CC2,> 100,,,> 100,> 100,> 100,98.9,> 100,> 100,> 100,> 100,> 100,,,,,,,,
CC[C@@]1(C[C@H]2C[C@@]3(C(=O)OC)c4[nH]c5ccccc5c4CCN3C2=O)COC2(CCCCC2)O1,> 100,> 100,> 100,96.3,> 100,> 100,,87,> 100,,> 100,> 100,,,,,,,,
C[C@]12CC[C@H](O)CC1=CC[C@@H]1C2CC[C@]2(C)C(=O)N(N)C(=O)CC12 (some centres not stated),> 100,> 100,> 100,> 100,> 100,> 100,> 100,,> 100,> 100,,,,,,,,,,
CC(N)Cc1ccc(C(=O)Cl)cc1 (configuration not stated),> 100,> 100,> 100,> 100,> 100,> 100,,,> 100,> 100,,,,,,,,,,
COc1cc([C@@H]2OCC3C(c4ccc5c(c4)OCO5)OCC32)cc(OC)c1OC (some centres not stated),> 100,> 100,> 100,> 100,> 100,> 100,> 100,,,> 100,,,,,,,,,,
O=C(Cc1cccs1)N[C@@H]1C(=O)N2C(C(=O)OC(c3ccccc3)c3ccccc3)=C(CO)CS[C@H]12,> 100,> 100,,> 100,> 100,> 100,96.9,,> 100,,> 100,,,,,,,,,
C=C(Br)C(C)(Cl)CCC(Br)C(C)(C)Cl (configuration not stated),> 100,> 100,,,75,> 100,66.2,> 100,> 100,> 100,> 100,> 100,,,,,,,,
Cc1cn(C2CC(N(O)C(N)=O)C(CO)O2)c(=O)[nH]c1=O (configuration not stated),,> 100,,> 100,> 100,> 100,,,> 100,> 100,> 100,> 100,,,,,,,,
O=C(NNC(=O)c1ccccc1SSc1ccccc1C(=O)NNC(=O)c1ccccc1S)c1ccccc1S,> 71.5,> 100,> 49.8,> 90.5,> 100,61.5,> 100,,> 100,> 91.7,> 73.6,> 27.8,,,,,,,,
FC(F)(F)c1cc(Cl)cnc1N/N=C(/c1ccccc1)c1ccccn1,4.97,22.9,3.33,20.1,11.8,> 100,8.03,5.98,,> 100,6.76,,,,,,,,,
Cc1cc(O)c2c(=O)c3ccccc3[nH]c2c1,> 100,> 100,93.6,> 100,> 100,52.1,94.3,84.6,> 100,> 100,> 100,,,,,,,,,
O=C(O)CN(CC(=O)O)C1CCCCC1N(CC(=O)O)CC(=O)NCCN=C=S (configuration not stated),> 100,> 100,,> 100,> 100,> 100,> 100,> 100,> 100,> 100,> 100,> 100,,,,,,,,
Oc1cc2c3c(c1)c1cc4c(cc1c[n+]3CC2)OCO4,> 76.6,> 88.5,26.3,> 84.5,> 100,> 100,17.2,13.6,> 75.7,> 41.8,,22.5,,,,,,,,
O=C1c2ccccc2C2C1N2C(=O)C(F)(F)F (configuration not stated),> 100,> 100,> 100,> 100,> 100,> 100,> 100,,> 100,> 100,,,,,,,,,,
O=C1C(=Cc2ccc(O)cc2)N=C(c2ccccc2)N1n1c(-c2ccccc2)nc2ccccc2c1=O,> 100,> 100,> 100,,,> 100,> 100,> 100,> 100,> 100,,> 100,,,,,,,,
O=[N+]([O-])/C(C(Cl)=C(Cl)Cl)=C(\SCc1ccccc1)N1CCCCC1,> 100,> 100,,55,37.6,49.7,53.2,> 100,> 100,> 100,,51.1,,,,,,,,
N=c1n(C(=O)N2CCCC2)c2cc(Cl)ccc2n1C1=NCCN1,> 100,> 100,,> 100,> 100,> 100,> 100,> 100,> 100,> 100,> 100,98.2,,,,,,,,
CNC(=O)C(C)C1CCC2(C)C=CC(=O)C(C)=C2C1O (configuration not stated),> 100,> 90.2,> 100,> 100,,> 100,> 100,,,> 100,> 71.7,,,,,,,,,
COc1ccc2c(=O)c(O)c(-c3ccc(OC)c(OC)c3)oc2c1,> 100,> 100,,,> 100,> 100,,,45.8,> 100,8.25,> 100,,,,,,,,
C(/c1ccco1)=c1/nc(-c2ccccc2)n2c1nc1ccccc12,6.07,> 100,,> 100,> 100,> 100,> 100,> 100,> 100,,> 100,> 100,,,,,,,,

Structure (SMILES),TGI [1] [µM],TGI [2] [µM],TGI [3] [µM],TGI [4] [µM],TGI [5] [µM],TGI [6] [µM],TGI [7] [µM],TGI [8] [µM],TGI [9] [µM],TGI [10] [µM],TGI [11] [µM],TGI [12] [µM],GI50 [1] [µM],GI50 [2] [µM],GI50 [9] [µM],GI50 [3] [µM],GI50 [4] [µM],GI50 [10] [µM],GI50 [6] [µM],GI50 [7] [µM]
CCOc1cc2c(cc1O)/C(=N\OC)C[C@@H]1[C@@H]2CC[C@]2(C)[C@@H](O)CC[C@@H]12,> 100,> 100,0.21,4.42,> 100,16.1,0.654,0.776,> 100,> 60.2,0.186,,,,,,,,,
CCOC(=O)N1CCC2(CC1)C[C@](C)(C(C)=O)C(C)O2 (some centres not stated),> 100,> 100,,> 100,> 100,> 100,> 100,> 100,> 100,> 100,> 100,,,,,,,,,
COc1cc(/C=C2\S/C(=N/Nc3nc(-c4ccc(Br)cc4)cs3)NC2=O)cc(OC)c1OC,63.8,56.7,77.2,35.8,25.4,36.1,11.7,89.5,36.6,99.1,35.1,,,,,,,,,
CNS(=O)(=O)NNS(=O)(=O)c1ccc2ccccc2c1,> 100,> 100,> 100,> 100,> 100,> 100,> 100,,> 100,> 100,,,,,,,,,,
CC(=O)Nc1ccc(-c2nnc(SCC(=O)Nc3ccc([N+](=O)[O-])cc3)o2)cc1,,37,27.6,33.3,28.7,26,29.5,,27.9,27.7,,,,,,,,,,
CCC[C@@H](O)C[C@@H]1CCC[C@H](C[C@@H](O)CC)N1C,> 100,> 100,,> 100,> 100,> 100,> 100,,> 100,> 100,> 100,> 100,,,,,,,,
O=C1OCC(O)=C1C(c1ccc(Cl)cc1)c1cc2c(cc1O)OCO2 (configuration not stated),> 100,> 100,> 100,> 100,> 100,> 100,> 100,> 100,> 100,> 100,> 100,,,,,,,,,
O=C(Nc1ccc(C2=NCCN2)cc1)c1cncc(C(=O)Nc2ccc(C3=NCCN3)cc2)c1,> 100,> 100,> 31.6,> 100,,> 100,> 100,,,> 31.6,> 100,,,,,,,,,
Cc1ccccc1-n1c(=O)c2ncn(CCCl)c2n(-c2ccccc2C)c1=S,> 100,> 100,> 100,> 100,> 100,> 100,> 100,,> 100,> 100,> 100,> 100,,,,,,,,
CC(=O)O[C@H]1C(=O)[C@]2(C)[C@@H](OC(=O)OCCC(O)CO)C[C@H]3OC[C@@]3(OC(C)=O)[C@H]2[C@H](OC(=O)c2ccccc2)[C@]2(O)C[C@H](OC(=O)[C@H](O)[C@@H](NC(=O)c3ccccc3)c3ccccc3)C(C)=C1C2(C)C (some centres not stated),> 100,> 100,0.158,46.8,> 100,> 100,0.576,0.479,> 61.2,,> 100,,,,,,,,,
Cc1cc(N(CCC#N)CCC#N)ccc1/C(N=Nc1ccc(Cl)cc1)=N\NC(=O)c1ccccc1,> 100,> 100,> 100,> 100,> 100,> 100,> 100,55,> 100,,> 100,88.3,,,,,,,,
COc1ccc(CNc2nc(NCc3ccc(OC)c(OC)c3)nc(NC3CCCCC3)n2)cc1,> 100,> 100,> 100,> 100,> 100,5.64,> 100,,> 100,> 100,17.5,> 100,,,,,,,,
O=C1CCC23CC(C=CC=C12)n1c(=O)n(-c2ccccc2)c(=O)n13 (configuration not stated),> 100,> 100,> 100,> 100,,> 100,> 100,,,> 100,> 81.2,,,,,,,,,
CCN(CC)CCC(=O)Nc1ccc2c(c1)C(=O)c1ccc(NC(=O)CCN(CC)CC)cc1C2=O,15.1,20.6,31.9,19,16.3,14.8,7.8,,18.9,24.6,,,,,,,,,,
N.N.N.N.O=[N+]([O-])[O-].[Co+3].[N-]=[N+]=[N-].[N-]=[N+]=[N-],> 100,> 100,> 100,> 100,> 100,> 100,,,> 100,> 100,,,,,,,,,,
CC(=O)NC1=C(NCCC(C)C)C(=O)c2ccccc2C1=O,> 50,> 50,> 50,> 50,> 50,> 50,> 50,,> 50,> 50,,,,,,,,,,
O=C([O-])CC(=O)[O-].O=C([O-])CC(=O)[O-].[K+].[Pd+2],> 100,> 100,> 100,> 100,,> 100,> 100,,> 100,> 100,,,> 100,> 100,> 100,> 100,> 100,> 100,> 100,> 100
COc1ccc(C2c3cc4c(cc3OC(NNS(=O)(=O)c3ccc(C)cc3)C2C)OCO4)cc1 (configuration not stated),,> 100,> 100,> 100,> 100,> 100,> 100,> 100,> 100,> 100,,> 100,,,,,,,,
Cc1cccc2c(=O)cc(-c3ccccc3)[nH]c12,> 100,> 100,9.26,> 100,> 100,> 100,> 100,,> 100,> 100,,,,,,,,,,
COc1cc([C@@H]2c3cc4c(cc3[C@@H](Nc3ccc([N+](=O)[O-])cc3C(=O)c3ccccc3)[C@H]3COC(=O)[C@H]23)OCO4)cc(OC)c1OC,> 100,> 100,> 100,> 100,> 100,,> 100,> 100,> 100,,> 100,> 100,,,,,,,,
